Test [1] in a line: Antimicrobial/bacteriostatic effect of zinc oxide at low levels. Particulars: even at low levels.
A further test relates to Streptococcus mutans. Particulars: especially with respect to Streptococcus mutans; cited from earlier work.

Take `[O]=[Zn]` [Zinc oxide, Zinc Oxide]: the antimicrobial/bacteriostatic effect entry in test [1] was “effective antimicrobial/bacteriostatic effect”. In addition, the antimicrobial properties entry in the test with Streptococcus mutans is “antimicrobial properties”.
